Where two headings read alike, the source gives them in different places.
How the values were obtained:
[1] = Hepatic microsome stability, mouse; format: in vitro ADME; conditions: mouse liver microsomes
Description: (§1) Hepatic microsomal stability assays were performed in two stages. In the first set of experiments, aliquots of the DMSO solute stocks were diluted into ACN and then into assay buffer (PBS, pH 7.4, ±0.05% PS80). Final experimental solute concentrations were 1 μM (0.6% ACN, 0.01% DMSO). Commercially available mouse, rat, or human hepatic microsomes (˜0.5 mg/ml final concentration), and NADPH (1 mM) or PBS were added. The resulting mixture was incubated at 37° C., and aliquots removed at 0, 1, 10, 30 and 60 min, then quenched with ACN containing 2 μM carbamazepine (internal standard). […] Duplicate incubations were run for each time-point. The percentage of solute remaining at the end of the incubation was used to determine solute half-life.
(§2) These were diluted 500-fold into 1 mL of microsomal incubation mixture to yield a final concentration of 1 μM. The incubation mixture was composed of 100 mM phosphate buffer, pH 7.4, and NADPH regenerating system (BD Biosciences NADPH Regenerating System Solutions A & B). This mixture was preincubated at 37° C. for 5 min in an Eppendorf Thermo mixer, and the reaction initiated by addition of 0.5 mg (25 μl of a 20 mg/mL solution) of liver microsomes. Aliquots (100 μl) were withdrawn at 0, 5, 15, 30, and 60 min, and added to 100 μl ACN containing internal standard. […] The percentage of solute remaining at the end of the incubation was used to determine species-specific values of scaled intrinsic clearance, hepatic clearance, and predicted hepatic extraction based upon the calculations below {Obach, 1999 #9097}.
(§3) for which mg microsomal protein/gm liver was 45 for all species, and gm liver/kg body weight were 32 for dog, 88 for mouse, 40 for rat and 25 for human.
(§4) Clh=(Q*Clint,scaled)/(Q+Clint,scaled)
(§5) for which Q was hepatic blood flow; values of 90 ml/min/kg for mouse, 66 ml/min/kg for rat, and 21 ml/min/kg for human were used.
(§6) for which ER estimates the amount of compound cleared during a single pass through the liver (Low ER<0.3, moderate ER 0.3-0.7, high ER>0.7).

[2] = Hepatic microsome stability, human; format: in vitro ADME; conditions: human liver microsomes
Description: as §1, §2, §3, §4, §5, §6

[3] = […]
[4] = for solubility in FaSSIF (in words): fasted-state simulated intestinal fluid; for solubility at pH 2.0 (in words): pH 2 (HCl) buffer
[5] = in vitro; conditions: dog, MDCK-MDR1
[6] = system: P-gp (MDR1); test: in vitro; conditions: dog, MDCK-MDR1
[7] = Hepatic microsomal stability, rat; conditions: for half-life at 1 μM: Sprague-Dawley, pH 7.4
[8] = Hepatic microsomal stability, mouse; conditions: for half-life at 1 μM: CD-1, mouse, pH 7.4
[9] = Hepatic microsomal stability, human; conditions: for half-life at 1 μM: pH 7.4
[10] = Multidose (three-day) pharmacokinetics in liquid diet in FVB mice; conditions: for concentration at 3 days: FVB, mouse, in vivo
[11] = system: ScN2a-c13 cells; test: cells; format: cell-based; conditions: Mus musculus; N=3; read-out: EC50 by calcein for cell viability
[12] = system: PrP^Sc in dividing ScN2a-c13 cells; conditions: read-out: EC50 (ELISA), reduction of PrP^Sc load; dividing ScN2a-c13 cells
[13] = 40 mg/kg, Brain Concentration (Css), three-day dosing in liquid diet, brain
[14] = 40 mg/kg, Plasma Concentration (Css), three-day dosing in liquid diet, plasma
[15] = 80 mg/kg, Brain Concentration (Css), three-day dosing in liquid diet, brain
[16] = 80 mg/kg, Plasma Concentration (Css), three-day dosing in liquid diet, plasma
[17] = 130 mg/kg, Brain Concentration (Css), three-day dosing in liquid diet, brain
[18] = 130 mg/kg, Plasma Concentration (Css), three-day dosing in liquid diet, plasma
[19] = 210 mg/kg, Brain Concentration (Css), three-day dosing in liquid diet, brain
[20] = 210 mg/kg, Plasma Concentration (Css), three-day dosing in liquid diet, plasma

| SMILES | hepatic extraction ratio (ER) [1] | hepatic extraction ratio (ER) [2] | hepatic extraction ratio (ER) [3] | Papp A→B [5] | Papp B→A [5] | efflux ratio [6] | half-life at 1 μM ([7]; rat) | % remaining after a 60-min incubation, Rat [7] | Hepatic Extraction Ratio Rat ([7]; rat microsomes) | half-life at 1 μM ([8]; liver microsomes) | half-life at 1 μM ([8]; mouse liver microsomes) | % remaining after a 60-min incubation, Mouse ([8]; mouse liver microsomes) | Hepatic Extraction Ratio Mouse ([8]; mouse microsomes) | % remaining after a 60-min incubation, Human ([9]; human liver microsomes) | half-life at 1 μM ([9]; human, human liver microsomes) | half-life at 1 μM ([9]; human, liver microsomes) | concentration at 3 days [10, 14] | concentration at 3 days [10, 16] | concentration at 3 days [10, 17] | concentration at 3 days [10, 18] | also measured |
| --- | --- | --- | --- | --- | --- | --- | --- | --- | --- | --- | --- | --- | --- | --- | --- | --- | --- | --- | --- | --- | --- |
| Cc1ccc(Nc2nc(-c3cc(-c4ccccc4)no3)cs2)nc1 [IND33, (5-Methyl-pyridin-2-yl)-[4-(3-phenyl-isoxazol-5-yl)-thiazol-2-yl]-amine] | lower to moderate | lower to moderate | lower to moderate | 6.8 ×10⁻⁶ cm/s | 8.3 ×10⁻⁶ cm/s | 1.2 | > 60 min | 73% | 0.3 | 99 min | > 60 min | 111% | 0.5 | 42% | 54 min | 54 min | 650 ± 380 nM | 2850 ± 1300 nM | 30000 nM | 4740 ± 1310 nM | solubility in FaSSIF (in words) [4]: higher solubility; solubility at pH 2.0 (in words) [4]: lower; t1/2 Rat (extrapolated) ([7]; rat microsomes): 151* min; Hepatic Extraction Ratio Human ([9]; human): 0.7; Hepatic Extraction Ratio Human ([9]; human microsomes): 0.7; concentration at 3 days [10, 13]: 880 ± 680 nM; concentration at 3 days [10, 15]: 5390 ± 2930 nM; concentration at 3 days [10, 19]: 12600 ± 8620 nM; concentration at 3 days [10, 20]: 14200 ± 2090 nM; Brain Concentration (Css), 130 mg/kg ([10]; three-day dosing in liquid diet, 130 mg/kg, brain): 23300 ± 13200 nM |
| COc1ccc(-c2csc(Nc3ccc4ccccc4n3)n2)cc1OC [IND47, [4-(3,4-Dimethoxy-phenyl)-thiazol-2-yl]-quinolin-2-yl-amine] | lower to moderate | lower to moderate | lower to moderate | 9.2 ×10⁻⁶ cm/s | 8.9 ×10⁻⁶ cm/s | 1 | > 60 min | 50% | 0.5 | 72 min | > 60 min | 56% | 0.6 | 113% | > 60 min | > 60 min | 130 ± 100 nM | 30 ± 20 nM | 400 ± 510 nM | 60 ± 20 nM | solubility in FaSSIF (in words) [4]: lower solubility; solubility at pH 2.0 (in words) [4]: lower solubility; t1/2 Rat (extrapolated) ([7]; rat microsomes): 69* min; concentration at 3 days [10, 13]: 400 ± 280 nM; concentration at 3 days [10, 19]: 230 ± 260 nM; concentration at 3 days [10, 20]: 120 ± 50 nM; concentration at 3 days ([10]; Brain and plasma concentrations, 40, 80, 130 and 210 mg/kg/day for 3 days): ≤ 1000 nM |
| Cc1ccnc(Nc2nc(-c3ccncc3)cs2)c1 [IND52, (4-Methyl-pyridin-2-yl)-(4-pyridin-4-yl-thiazol-2-yl)-amine] | higher | higher | higher | 36.2 ×10⁻⁶ cm/s | 48.7 ×10⁻⁶ cm/s | 1.3 | 16 min | 8% | 0.8 | 6 min | 6 min | 0% | 0.95 | 30% | 36 min | 36 min | 10 ± 10 nM | 670 ± 1000 nM | 2340 ± 2130 nM | 1930 ± 1580 nM | EC50 [11]: > 10 µM; EC50 [12]: 4.95 µM; Hepatic Extraction Ratio Rat ([7]; rat): 0.8; Hepatic Extraction Ratio Mouse ([8]; mouse): 0.95; Hepatic Extraction Ratio Human ([9]; human): 0.8; Hepatic Extraction Ratio Human ([9]; human microsomes): 0.8; concentration at 3 days [10, 15]: 760 ± 1090 nM; concentration at 3 days [10, 19]: 7650 ± 5570 nM; concentration at 3 days [10, 20]: 10900 ± 8440 nM; Brain Concentration (Css), 40 mg/kg ([10]; three-day dosing in liquid diet, 40 mg/kg, brain): no measurable brain concentrations |
